In ChEMBL document CHEMBL1201862, “PubChem BioAssay data set” (2004):
The source made the active and inactive calls.

What was measured:
[1] = P. falciparum Dd2 growth inhibitors, dose response, SYBR Green, cherry-picked samples (AID 1159567); format: functional, cell-based
[2] = P. falciparum 3D7-ScDHODH growth inhibitors, dose response, SYBR Green, dry powder samples (AID 1159570); format: functional, cell-based;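 also: parasite growth measured after 72 hours of compound exposure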
[3] = P. falciparum ATP4 D1247Y mutant growth inhibitors, dose response, NITD609-resistant line, SYBR Green, dry powder (AID 1159571); format: functional, cell-based;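 also: parasites synchronized at ring stage by sorbitol before testing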
[4] = P. falciparum Dd2 growth inhibitors, dose response, SYBR Green, dry powder samples (AID 1159566); format: functional, cell-based;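 also: potency for growth inhibition with lower SYBR green DNA signal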
[5] = HepG2 cell cytotoxicity, dose response, cytotoxicity control, plate reader, dry powder samples (AID 1159569); format: functional, cell-based;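 also: inhibitor potency with signal falling toward the positive control level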
[6] = HepG2 cell cytotoxicity, dose response, cytotoxicity control, cherry-picked samples (AID 1159577); format: functional, cell-based
cells [7] = format: functional, cell-based
Large T antigen = Large T antigen (Simian virus 40, UniProt P03070); format: functional, Betapolyomavirus macacae;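 also: Confirmatory-stage PubChem screen for compounds that inhibit SV40 T antigen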
Sequence of Large T antigen (P03070 whole entry): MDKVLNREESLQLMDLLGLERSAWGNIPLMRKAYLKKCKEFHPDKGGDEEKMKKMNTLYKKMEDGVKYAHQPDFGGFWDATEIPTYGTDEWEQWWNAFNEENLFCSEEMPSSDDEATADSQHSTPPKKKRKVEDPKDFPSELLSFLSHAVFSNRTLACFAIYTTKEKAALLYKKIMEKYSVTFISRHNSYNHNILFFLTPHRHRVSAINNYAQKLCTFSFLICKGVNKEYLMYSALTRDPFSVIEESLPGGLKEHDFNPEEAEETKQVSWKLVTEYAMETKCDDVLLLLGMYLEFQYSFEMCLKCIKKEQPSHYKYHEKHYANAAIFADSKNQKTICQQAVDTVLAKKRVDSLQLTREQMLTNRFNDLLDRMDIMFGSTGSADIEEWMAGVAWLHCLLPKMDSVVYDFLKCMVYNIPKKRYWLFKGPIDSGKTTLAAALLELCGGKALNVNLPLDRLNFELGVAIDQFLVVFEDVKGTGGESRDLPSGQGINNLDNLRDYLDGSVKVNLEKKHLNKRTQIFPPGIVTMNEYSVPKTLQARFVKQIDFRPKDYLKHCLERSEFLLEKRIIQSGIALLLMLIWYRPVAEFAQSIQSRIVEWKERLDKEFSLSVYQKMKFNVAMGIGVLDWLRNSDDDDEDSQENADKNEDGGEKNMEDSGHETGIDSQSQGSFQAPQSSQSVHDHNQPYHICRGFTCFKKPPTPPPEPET

[8] = target: T1, Trace amine-associated receptor 1 (Homo sapiens, UniProt Q96RJ0); test: Fluorescence-based cell-based high throughput dose response assay to identify agonists of the human trace amine associated receptor 1 (TAAR1).; format: functional
T1 sequence (Q96RJ0 whole entry): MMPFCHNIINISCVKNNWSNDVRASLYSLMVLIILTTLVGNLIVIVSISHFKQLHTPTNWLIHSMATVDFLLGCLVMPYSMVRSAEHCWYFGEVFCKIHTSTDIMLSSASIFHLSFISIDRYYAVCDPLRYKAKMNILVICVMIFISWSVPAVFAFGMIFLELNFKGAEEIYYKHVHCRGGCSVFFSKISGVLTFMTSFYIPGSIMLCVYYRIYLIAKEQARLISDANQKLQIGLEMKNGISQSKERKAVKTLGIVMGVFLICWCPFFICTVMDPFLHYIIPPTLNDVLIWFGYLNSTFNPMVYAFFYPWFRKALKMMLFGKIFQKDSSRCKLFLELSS

[9] = target: T1, Trace amine-associated receptor 1; test: Counterscreen for agonists of the human trace amine associated receptor 1 (hTAAR1): Fluorescence-based cell-based high throughput dose response assay to identify hTAAR1 agonist that also desensitize TAAR1 receptor response.; format: functional
cells [10] = format: functional, cell-based; remark: listed apart in the source
[11] = target: Tyrosyl-DNA phosphodiesterase 2 (Homo sapiens, UniProt O95551); test: human TDP2 enzyme inhibitors, dose response, biochemical, epi absorbance, IC50 (AID 743297)
Sequence of Tyrosyl-DNA phosphodiesterase 2 (O95551 whole entry, the tested form may be a part): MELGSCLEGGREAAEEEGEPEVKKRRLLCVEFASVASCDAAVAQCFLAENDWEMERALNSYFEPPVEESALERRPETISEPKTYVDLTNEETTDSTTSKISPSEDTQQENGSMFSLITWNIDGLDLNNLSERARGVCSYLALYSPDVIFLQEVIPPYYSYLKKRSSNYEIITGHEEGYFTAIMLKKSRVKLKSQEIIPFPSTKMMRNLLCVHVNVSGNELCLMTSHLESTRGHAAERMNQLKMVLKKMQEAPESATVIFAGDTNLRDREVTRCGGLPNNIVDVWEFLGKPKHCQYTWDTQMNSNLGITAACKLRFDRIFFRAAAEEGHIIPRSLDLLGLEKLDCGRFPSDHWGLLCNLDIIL

[12] = inhibitors of HIV Env-driven cell fusion, dose response, cherry-pick (AID 652057); format: functional, cell-based
[13] = ZM109 Env clade C HIV-1 fusion inhibitors, dose response, HeLa effector, CEM target cells, luciferase, cherry-pick (AID 652058); format: functional, cell-based
[14] = target: T2, Microphthalmia-associated transcription factor (Homo sapiens, UniProt O75030); test: TRPM1 promoter luciferase signal decrease, dose response, MITF inhibitor project, cell-based, SK-MEL-5, cherry-picked, set 3 (AID 493073); format: functional
T2 sequence (O75030 whole entry): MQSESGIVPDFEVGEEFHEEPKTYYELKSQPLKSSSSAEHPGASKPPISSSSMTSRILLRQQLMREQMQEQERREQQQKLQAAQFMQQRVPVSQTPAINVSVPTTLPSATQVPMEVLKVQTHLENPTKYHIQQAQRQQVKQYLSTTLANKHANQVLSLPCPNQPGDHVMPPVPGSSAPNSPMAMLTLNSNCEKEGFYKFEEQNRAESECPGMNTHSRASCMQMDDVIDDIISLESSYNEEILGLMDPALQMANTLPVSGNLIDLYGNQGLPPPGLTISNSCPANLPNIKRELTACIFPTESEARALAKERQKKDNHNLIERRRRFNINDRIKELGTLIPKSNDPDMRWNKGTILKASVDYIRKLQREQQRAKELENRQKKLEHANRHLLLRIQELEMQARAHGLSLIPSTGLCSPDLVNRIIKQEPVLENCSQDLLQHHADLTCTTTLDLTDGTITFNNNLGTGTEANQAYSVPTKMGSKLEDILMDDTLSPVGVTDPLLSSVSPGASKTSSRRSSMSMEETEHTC

[15] = inhibitors of clade B AD8 Env fusion, dose response, cell-based, cherry-pick (AID 652062); format: functional;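 also: luciferase signal from cell-cell fusion driven by HIV-1 clade B AD8 Env; potency is for inhibitors of fusion seen as a drop in luminescence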
[16] = cytotoxicity in HEK-293T cells, dose response, cytotoxicity control for TCR NF-kB inhibitor project, luminescence, T-cell screen hits (AID 489026); format: functional, cell-based;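 also: cells exposed to compound about 14 hours before the viability readout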
[17] = LGR2 antagonists, dose response, cell-based, HEK293, CRE-luciferase reporter, cherry pick, set 2 (AID 743343); format: functional;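 also: transfected cells were stimulated with diluted bursicon conditioned medium after compound addition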
[18] = off-target signal loss in HeLa-CEM21 co-culture – HeLa F-luc CTL cells, cherry-picked, counter-screen for HIV-1 Env fusion inhibitor project, dose response (AID 652040); format: functional, cell-based;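 also: potency for signal decrease marking cytotoxic or nonspecific inhibition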
[19] = MC4R antagonists, dose response, counter-screen for LGR2 antagonist project, cell-based, plate reader, cherry pick (AID 743444); format: functional;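 also: transfected HEK 293 cells stimulated with alpha-MSH peptide; potency of inhibitors of the alpha-MSH evoked signal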
cells [20] = conditions: A549
[21] = target: T3, RNA-binding protein pos-1 (Caenorhabditis elegans, UniProt G5EF15); test: inhibitors of POS-1/mex-3 RNA binding, dose response, biochemical, fluorescence polarization (AID 1964);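 also: purified POS-1 fused to maltose binding protein made in E. coli; potency of compounds blocking POS-1 binding to fluorescent RNA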
T3 sequence (G5EF15 whole entry): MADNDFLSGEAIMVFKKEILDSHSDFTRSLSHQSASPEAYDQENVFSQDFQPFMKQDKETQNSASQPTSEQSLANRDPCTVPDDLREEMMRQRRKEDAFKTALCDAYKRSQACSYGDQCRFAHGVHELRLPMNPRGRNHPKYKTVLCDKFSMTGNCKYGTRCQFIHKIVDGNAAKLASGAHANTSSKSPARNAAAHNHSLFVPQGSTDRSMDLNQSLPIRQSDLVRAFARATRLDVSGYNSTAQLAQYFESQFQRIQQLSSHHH

[22] = target: T4, Zinc finger protein mex-5 (Caenorhabditis elegans, UniProt Q9XUB2); test: MEX-5/TCR-2 RNA interaction inhibitors, dose response, biochemical, C. elegans, fluorescence polarization (AID 1960)
T4 sequence (Q9XUB2 whole entry): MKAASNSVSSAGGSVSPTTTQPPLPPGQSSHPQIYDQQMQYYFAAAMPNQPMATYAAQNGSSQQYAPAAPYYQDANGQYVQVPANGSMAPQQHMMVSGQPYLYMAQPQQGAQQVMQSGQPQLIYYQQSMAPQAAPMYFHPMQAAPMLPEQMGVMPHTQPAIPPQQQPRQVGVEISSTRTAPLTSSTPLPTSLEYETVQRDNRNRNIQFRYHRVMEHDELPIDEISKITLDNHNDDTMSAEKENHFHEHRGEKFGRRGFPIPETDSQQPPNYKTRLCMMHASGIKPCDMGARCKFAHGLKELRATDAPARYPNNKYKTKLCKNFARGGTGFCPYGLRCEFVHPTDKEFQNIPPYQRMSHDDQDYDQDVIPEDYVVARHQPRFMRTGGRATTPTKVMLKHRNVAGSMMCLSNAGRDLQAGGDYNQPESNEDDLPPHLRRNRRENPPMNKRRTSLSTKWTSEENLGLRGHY

[23] = HEK293 cell cytotoxicity, dose response, cytotoxicity control, cherry-picks, set 5 (AID 1053117); format: functional, cell-based
[24] = target: NAD-dependent protein deacylase sirtuin-5, mitochondrial (Homo sapiens, UniProt Q9NXA8); test: SIRT5 desuccinylase inhibitors, dose response, biochemical, fluorescence imaging, cherry-pick, set 5 (AID 720591);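 also: desuccinylation of succinyl peptide AMC substrate read as fluorescence after trypsin release; potency of inhibitors that lower fluorescence and may act on trypsin instead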
Sequence of NAD-dependent protein deacylase sirtuin-5, mitochondrial (Q9NXA8 whole entry): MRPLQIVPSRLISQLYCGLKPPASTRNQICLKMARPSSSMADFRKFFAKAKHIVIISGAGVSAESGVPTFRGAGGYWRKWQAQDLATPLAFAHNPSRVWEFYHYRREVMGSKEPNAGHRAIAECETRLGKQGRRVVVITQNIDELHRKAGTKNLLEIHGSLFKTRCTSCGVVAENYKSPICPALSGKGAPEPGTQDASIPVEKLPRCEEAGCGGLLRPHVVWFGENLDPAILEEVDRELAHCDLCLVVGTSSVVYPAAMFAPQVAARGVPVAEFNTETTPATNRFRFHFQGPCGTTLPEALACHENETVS

[25] = target: 1-phosphatidylinositol 4,5-bisphosphate phosphodiesterase gamma-1 (Homo sapiens, UniProt P19174); test: Counterscreen for inhibitors of phospholipase C isozymes (PLC-B3): Fluorescence-based biochemical high throughput dose response assay to identify inhibitors of phospholipase C isozymes (PLC-gamma1).
Sequence of 1-phosphatidylinositol 4,5-bisphosphate phosphodiesterase gamma-1 (P19174 whole entry): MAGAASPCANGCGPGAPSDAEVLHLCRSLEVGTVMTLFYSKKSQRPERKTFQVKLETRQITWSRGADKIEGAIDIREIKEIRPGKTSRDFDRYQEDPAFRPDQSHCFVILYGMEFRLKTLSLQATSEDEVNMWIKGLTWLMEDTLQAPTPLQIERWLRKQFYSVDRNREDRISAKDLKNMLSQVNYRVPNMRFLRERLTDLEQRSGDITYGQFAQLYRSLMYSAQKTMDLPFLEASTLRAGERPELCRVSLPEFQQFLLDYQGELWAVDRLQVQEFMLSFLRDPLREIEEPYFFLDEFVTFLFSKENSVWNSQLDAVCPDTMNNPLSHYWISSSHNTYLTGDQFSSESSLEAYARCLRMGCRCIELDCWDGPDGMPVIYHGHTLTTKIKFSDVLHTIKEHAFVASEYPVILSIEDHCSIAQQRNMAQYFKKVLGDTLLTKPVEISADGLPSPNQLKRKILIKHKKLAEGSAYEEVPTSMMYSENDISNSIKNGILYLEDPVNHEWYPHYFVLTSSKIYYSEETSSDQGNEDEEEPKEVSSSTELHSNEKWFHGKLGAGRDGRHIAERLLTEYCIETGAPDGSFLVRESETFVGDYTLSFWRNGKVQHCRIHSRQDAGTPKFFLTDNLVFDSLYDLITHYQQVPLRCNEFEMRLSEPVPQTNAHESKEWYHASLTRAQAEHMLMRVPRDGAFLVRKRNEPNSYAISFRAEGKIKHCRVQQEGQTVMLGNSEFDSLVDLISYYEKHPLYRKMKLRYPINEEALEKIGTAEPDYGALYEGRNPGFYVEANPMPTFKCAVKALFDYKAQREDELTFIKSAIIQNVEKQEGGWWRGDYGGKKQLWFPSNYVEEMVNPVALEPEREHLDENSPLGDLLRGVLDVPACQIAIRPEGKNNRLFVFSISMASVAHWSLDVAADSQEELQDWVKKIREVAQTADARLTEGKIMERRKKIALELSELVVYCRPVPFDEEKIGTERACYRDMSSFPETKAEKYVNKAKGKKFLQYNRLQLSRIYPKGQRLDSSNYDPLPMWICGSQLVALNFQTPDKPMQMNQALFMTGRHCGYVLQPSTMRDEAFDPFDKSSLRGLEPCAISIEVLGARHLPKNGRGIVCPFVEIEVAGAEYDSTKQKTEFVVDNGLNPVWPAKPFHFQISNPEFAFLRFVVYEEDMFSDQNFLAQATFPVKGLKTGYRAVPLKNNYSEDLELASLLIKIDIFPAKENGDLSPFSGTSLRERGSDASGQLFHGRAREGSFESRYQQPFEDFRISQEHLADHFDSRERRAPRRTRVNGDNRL

[26] = target: 1-phosphatidylinositol 4,5-bisphosphate phosphodiesterase beta-3 (Homo sapiens, UniProt Q01970); test: Fluorescence-based biochemical high throughput dose response assay to identify inhibitors of phospholipase C isozymes (PLC-B3).
Sequence of 1-phosphatidylinositol 4,5-bisphosphate phosphodiesterase beta-3 (Q01970 whole entry): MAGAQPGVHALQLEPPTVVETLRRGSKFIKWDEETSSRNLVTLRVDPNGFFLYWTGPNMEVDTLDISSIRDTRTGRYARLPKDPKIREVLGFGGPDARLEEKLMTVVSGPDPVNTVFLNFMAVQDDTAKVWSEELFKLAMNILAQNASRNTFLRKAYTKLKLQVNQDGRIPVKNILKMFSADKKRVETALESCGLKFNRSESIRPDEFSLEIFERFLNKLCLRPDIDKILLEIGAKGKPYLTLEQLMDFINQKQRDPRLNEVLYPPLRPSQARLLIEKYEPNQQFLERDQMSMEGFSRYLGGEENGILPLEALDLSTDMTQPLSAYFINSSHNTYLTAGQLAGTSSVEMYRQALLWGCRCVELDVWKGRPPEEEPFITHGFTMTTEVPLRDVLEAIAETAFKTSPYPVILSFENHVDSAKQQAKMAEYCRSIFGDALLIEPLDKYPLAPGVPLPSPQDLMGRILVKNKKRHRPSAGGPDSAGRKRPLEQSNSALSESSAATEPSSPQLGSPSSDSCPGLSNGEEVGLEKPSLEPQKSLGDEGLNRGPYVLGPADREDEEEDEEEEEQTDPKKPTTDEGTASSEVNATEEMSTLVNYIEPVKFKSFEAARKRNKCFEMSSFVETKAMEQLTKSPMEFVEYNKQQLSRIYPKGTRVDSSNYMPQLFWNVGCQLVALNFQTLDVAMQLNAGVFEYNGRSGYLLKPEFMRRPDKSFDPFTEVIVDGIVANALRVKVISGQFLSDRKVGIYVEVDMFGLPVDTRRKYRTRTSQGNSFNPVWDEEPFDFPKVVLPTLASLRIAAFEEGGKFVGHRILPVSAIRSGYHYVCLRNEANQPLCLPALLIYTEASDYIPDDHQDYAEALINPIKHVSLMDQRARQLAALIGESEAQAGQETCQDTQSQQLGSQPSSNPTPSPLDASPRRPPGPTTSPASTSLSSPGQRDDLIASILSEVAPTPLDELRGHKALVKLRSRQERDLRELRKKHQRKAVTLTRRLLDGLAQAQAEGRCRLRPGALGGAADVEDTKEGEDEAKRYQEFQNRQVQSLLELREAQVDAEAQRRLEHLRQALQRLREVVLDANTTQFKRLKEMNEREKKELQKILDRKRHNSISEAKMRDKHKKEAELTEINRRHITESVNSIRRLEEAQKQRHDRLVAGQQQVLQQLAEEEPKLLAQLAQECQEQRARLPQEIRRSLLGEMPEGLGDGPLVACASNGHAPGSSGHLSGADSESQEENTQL

OC[C@@H]1Nc2ccc(-c3cccc(F)c3)cc2[C@@H]2[C@H]1CCN2Cc1ccncc1
AC50 [1]: 1.27 µM (active) | AC50 [2]: 2.02 µM (active) | AC50 [3]: 0.814 µM (active) | AC50 [4]: 0.638 µM (active) | AC50 [5]: 29.5 µM (active) | AC50 [6]: 27.6 µM (active)

Oc1ccc(/C=N\Nc2cnnc(O)c2Cl)c(O)c1
EC50 (cells [7]): > 29.9 µM (inactive) | IC50 (Large T antigen): 15.7 µM (active) | EC50 [8]: 1.16 µM (active) | IC50 [9]: 24.5 µM (inactive) | IC50 (cells [10]): > 29.9 µM (inactive)

COC1=C(N2CCOCC2)C(=O)c2ccccc2C1=O
IC50 [11]: 77.2 µM (inactive)

CCn1c(C)cc(C(=O)CN2C(=O)c3ccccc3S2(=O)=O)c1C
AC50 [12]: 2.09 µM (active) | AC50 [13]: 7.25 µM (active) | AC50 [14]: 1.99 µM (active) | AC50 [15]: 0.358 µM (active) | IC50 [16]: > 80 µM (inactive) | AC50 [17]: 1.46 µM (active) | AC50 [18]: 4.71 µM (active) | AC50 [19]: 1.16 µM (active)

O=C1c2ccccc2S(=O)(=O)c2cc(N3CCC(C(=O)N4CCCCC4)CC3)ccc21
AC50 (cells [20]): > 52 µM (inactive) | EC50 [21]: > 300 µM (not active) | EC50 [22]: > 300 µM (not active)

C=CCC[C@H](Cc1ccc(F)cc1)C(=O)OC[C@H](Cc1c[nH]c2ccccc12)NC(=O)[C@@H](CC=C)CC(=O)N[C@@H](CO)Cc1ccccc1
AC50 [23]: > 52 µM (inactive)

CC(C)C[C@H](NC(=O)C1CCN(C(=O)[C@H](Cc2ccccc2)NC(=O)OC(C)(C)C)CC1)C(=O)O
AC50 [24]: > 30 µM (inactive)

C[C@@H]1CN([C@@H](C)CO)C(=O)c2c(c3ccccc3n2C)-c2ccccc2CO[C@@H]1CN(C)C(=O)Nc1cccc(Cl)c1Cl
AC50 [1]: 1.52 µM (active) | AC50 [2]: 1.62 µM (active) | AC50 [3]: 0.572 µM (active) | AC50 [4]: 0.85 µM (active) | AC50 [5]: 23.5 µM (active)

COc1ccccc1COC(=O)c1cccc(S(=O)(=O)N2CCCC2)c1
IC50 [25]: > 123 µM (inactive) | IC50 [26]: > 123 µM (inactive)
